Reference: patent publication US12564638B2 (SHANGHAITECH UNIVERSITY, priority 2019, dated 2026)
pIC50: −log10 of the molar value. Where two headings read alike, the source gives them in different places. Blank lines part the entries; values can stand above or below the compound they belong to.

Experiments:
[1] = tested on: HCC827 cells (EGFR Exon19 del, non-small cell lung cancer cells); assay: Cell viability assay (WST/CCK8), HCC827 cells; format: cell-based; conditions: Homo sapiens, HCC827, 72 h, 72 hours, read-out: IC50 (half inhibitory concentration)
In short: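 Cells seeded at 3 000/well in RPMI1640 complete medium, dosed next day with compounds (top 10 μM, 3-fold, 10 points) for 72 h. Viability read with WST (CCK8) reagent; DMSO as negative control, EGFR TKIs as positive controls; IC50 determined.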

[2] = tested on: PC9 cells (EGFR Exon 19 del, non-small cell lung cancer cells); assay: Cell viability assay (WST/CCK8), PC9 cells; format: cell-based; conditions: Homo sapiens, PC-9, PC9 (Exon19 Del), 72 hours, read-out: IC50 (half inhibitory concentration)
Excerpt: The cell lines with abnormal EGFR expression used are as follows: • HCC827 cells (EGFR Exon19 del, non-small cell lung cancer cells); • PC9 cells (EGFR Exon 19 del, non-small cell lung cancer cells); • PC9BracA1 (EGFR Exon 19 del+T790M, non-small cell lung cancer cells) • H1975 (EGFR Exon T790M+L858R mutation, non-small cell lung cancer cell line) • BT474 cells (HER2 positive breast cancer cells)
All of the half inhibitory concentrations (IC50) of these compounds of the present invention were determined with WST reagent from Fuyuan Biotec Company. The specific experiment procedures are as follows: Cancer cells were planted in 96-well-plate at the density of 3 000 cells per well with 100 μL RPMI1640 completed culture medium. In the next day, compounds with indicated concentrations were added to the cells, DMSO was used as the negative control and the EGFR TKIs were used to treat cells as the positive groups. After 72 hours drug treatment, cell viability was measured by using the WST reagent following the instructions.
The cells were treated with the gradient concentration of these compounds (the maximum concentration: 10 μM; 3-fold dilution ratio, 10 concentration gradients) for 72 hours and then incubated with the WST (CCK8) reagent to determine the cell viability.

[3] = HCC827 (Exon19 Del), WST (CCK8)
[4] = Table 4, gefitinib and sapitinib-based compounds, HCC827 (Exon19 Del), WST
[5] = Table 8, osimertinib-based compounds, HCC827, WST
[6] = Table 5, afatinib-based compounds, HCC827 (Exon19 Del), WST

pIC50 ([1]; Table 6, canertinib-based compounds, HCC827 (Exon19 Del), WST): 7.80 | pIC50 ([2]; Table 6, canertinib-based compounds, WST): 7.86
SMILES: C=CC(=O)Nc1cc2c(Nc3ccc(F)c(Cl)c3)ncnc2cc1OCCCN1CCC(N2CCNCC2)CC1 [Caneritinib derivative B (SIAIS249183), N-(4-((3-chloro-4-fluorophenyl)amino)-7-(3-(4-(piperazin-1-yl)piperidin-1-yl)propoxy)quinazolin-6-yl)acrylamide]

pIC50 [1, 3]: 8.40 | pIC50 ([2]; WST (CCK8)): 8.01
SMILES: COc1cc2ncnc(Nc3ccc(F)c(Cl)c3)c2cc1NC(=O)/C=C/CN1CCNCC1 [Dacomitinib derivative A, (E)-N-(4-((3-chloro-4-fluorophenyl)amino)-7-methoxyquinazolin-6-yl)-4-(piperazin-1-yl)but-2-enamide]

pIC50 [1, 4]: 7.10 | pIC50 ([2]; Table 4, gefitinib-based compounds, WST): 6.16
SMILES: COc1cc2ncnc(Nc3ccc(F)c(Cl)c3)c2cc1OCCCN1CCN(C(=O)CCCCCSc2cccc3c2C(=O)N(C2CCC(=O)NC2=O)C3=O)CC1 (stereo not drawn) [SIAIS184166, 4-((6-(4-(3-((4-((3-chloro-4-fluorophenyl)amino)-7-methoxyquinazolin-6-yl)oxy)propyl)piperazin-1-yl)-6-oxohexyl)thio)-2-(2,6-dioxopiperidin-3-yl)isoindoline-1,3-dione]

pIC50 [1, 4]: 8.92
SMILES: COc1cc2ncnc(Nc3cccc(Cl)c3F)c2cc1OC1CCN(CC(=O)NCCCCCCSc2cccc3c2CN(C2CCC(=O)NC2=O)C3=O)CC1 (stereo not drawn) [SIAIS293068, 2-(4-((4-((3-chloro-2-fluorophenyl)amino)-7-methoxyquinazolin-6-yl)oxy)piperidin-1-yl)-N-(6-((2-(2,6-dioxopiperidin-3-yl)-1-oxoisoindolin-4-yl)thio)hexyl)acetamide]

pIC50 [1, 4]: 8.03
SMILES: COc1cc2ncnc(Nc3cccc(Cl)c3F)c2cc1OC1CCN(CC(=O)NCCCCCCCSc2cccc3c2CN(C2CCC(=O)NC2=O)C3=O)CC1 (stereo not drawn) [SIAIS293069, 2-(4-((4-((3-chloro-2-fluorophenyl)amino)-7-methoxyquinazolin-6-yl)oxy)piperidin-1-yl)-N-(7-((2-(2,6-dioxopiperidin-3-yl)-1-oxoisoindolin-4-yl)thio)heptyl)acetamide]

pIC50 [1, 4]: 7.85
SMILES: COc1cc2ncnc(Nc3cccc(Cl)c3F)c2cc1OC1CCN(CC(=O)NCCCCCCCCSc2cccc3c2CN(C2CCC(=O)NC2=O)C3=O)CC1 (stereo not drawn) [SIAIS293070, 2-(4-((4-((3-chloro-2-fluorophenyl)amino)-7-methoxyquinazolin-6-yl)oxy)piperidin-1-yl)-N-(8-((2-(2,6-dioxopiperidin-3-yl)-1-oxoisoindolin-4-yl)thio)octyl)acetamide]

pIC50 [1, 3]: 7.57
SMILES: COc1cc2ncnc(Nc3ccc(F)c(Cl)c3)c2cc1NC(=O)/C=C/CN1CCC(N2CCN(CCCCCCCCCCCSc3cccc4c3CN(C3CCC(=O)NC3=O)C4=O)CC2)CC1 (stereo not drawn) [SIAIS337040, (E)-N-(4-((3-chloro-4-fluorophenyl)amino)-7-methoxyquinazolin-6-yl)-4-(4-(4-(11-((2-(2,6-dioxopiperidin-3-yl)-1-oxoisoindolin-4-yl)thio)undecyl)piperazin-1-yl)piperidin-1-yl)but-2-enamide]

pIC50 [1, 5]: 6.45
SMILES: C=CC(=O)Nc1cc(Nc2nccc(-c3cn(C)c4ccccc34)n2)c(OC)cc1N(C)CCN(C)C(=O)CSc1cccc2c1CN(C1CCC(=O)NC1=O)C2=O (stereo not drawn) [SIAIS337052, N-(2-((2-(2-((2-(2,6-dioxopiperidin-3-yl)-1-oxoisoindolin-4-yl)thio)-N-methylacetamido)ethyl)(methyl)amino)-4-methoxy-5-((4-(1-methyl-1H-indol-3-yl)pyrimidin-2-yl)amino)phenyl)acrylamide]

pIC50 [1, 5]: 6.34
SMILES: C=CC(=O)Nc1cc(Nc2nccc(-c3cn(C)c4ccccc34)n2)c(OC)cc1N(C)CCN(C)C(=O)CCCCSc1cccc2c1CN(C1CCC(=O)NC1=O)C2=O (stereo not drawn) [SIAIS337055, N-(2-((2-acrylamido-5-methoxy-4-((4-(1-methyl-1H-indol-3-yl)pyrimidin-2-yl)amino)phenyl)(methyl)amino)ethyl)-5-((2-(2,6-dioxopiperidin-3-yl)-1-oxoisoindolin-4-yl)thio)-N-methylpentanamide]

pIC50 [1, 5]: 7.33
SMILES: C=CC(=O)Nc1cc(Nc2nccc(-c3cn(C)c4ccccc34)n2)c(OC)cc1N(C)CCN(C)C(=O)CCCCCCCCSc1cccc2c1CN(C1CCC(=O)NC1=O)C2=O (stereo not drawn) [SIAIS337059, N-(2-((2-acrylamido-5-methoxy-4-((4-(1-methyl-1H-indol-3-yl)pyrimidin-2-yl)amino)phenyl)(methyl)amino)ethyl)-9-((2-(2,6-dioxopiperidin-3-yl)-1-oxoisoindolin-4-yl)thio)-N-methylnonanamide]

pIC50 [1, 5]: 6.45
SMILES: C=CC(=O)Nc1cc(Nc2nccc(-c3cn(C)c4ccccc34)n2)c(OC)cc1N(C)CCN(C)C(=O)CCCCCCCCCCSc1cccc2c1CN(C1CCC(=O)NC1=O)C2=O (stereo not drawn) [SIAIS337061, N-(2-((2-acrylamido-5-methoxy-4-((4-(1-methyl-1H-indol-3-yl)pyrimidin-2-yl)amino)phenyl)(methyl)amino)ethyl)-11-((2-(2,6-dioxopiperidin-3-yl)-1-oxoisoindolin-4-yl)thio)-N-methylundecanamide]

pIC50 [1, 5]: 6.77
SMILES: C=CC(=O)Nc1cc(Nc2nccc(-c3cn(C)c4ccccc34)n2)c(OC)cc1N(C)CCN(C)C(=O)COCCOCCSc1cccc2c1CN(C1CCC(=O)NC1=O)C2=O (stereo not drawn) [SIAIS337075, N-(2-((2-(2-(2-(2-((2-(2,6-dioxopiperidin-3-yl)-1-oxoisoindolin-4-yl)thio)ethoxy)ethoxy)-N-methylacetamido)ethyl)(methyl)amino)-4-methoxy-5-((4-(1-methyl-1H-indol-3-yl)pyrimidin-2-yl)amino)phenyl)acrylamide]

pIC50 [1, 5]: 7.44
SMILES: C=CC(=O)Nc1cc(Nc2nccc(-c3cn(C)c4ccccc34)n2)c(OC)cc1N(C)CCN(C)C(=O)COCCOCCOCCOCCSc1cccc2c1CN(C1CCC(=O)NC1=O)C2=O (stereo not drawn) [SIAIS337077, N-(2-((2-acrylamido-5-methoxy-4-((4-(1-methyl-1H-indol-3-yl)pyrimidin-2-yl)amino)phenyl)(methyl)amino)ethyl)-14-((2-(2,6-dioxopiperidin-3-yl)-1-oxoisoindolin-4-yl)thio)-N-methyl-3,6,9,12-tetraoxatetradecanamide]

pIC50 [1, 5]: 6.90
SMILES: C=CC(=O)Nc1cc(Nc2nccc(-c3cn(C)c4ccccc34)n2)c(OC)cc1N(C)CCN(C)C(=O)COCCOCCOCCOCCOCCSc1cccc2c1CN(C1CCC(=O)NC1=O)C2=O (stereo not drawn) [SIAIS337078, N-(2-((2-acrylamido-5-methoxy-4-((4-(1-methyl-1H-indol-3-yl)pyrimidin-2-yl)amino)phenyl)(methyl)amino)ethyl)-17-((2-(2,6-dioxopiperidin-3-yl)-1-oxoisoindolin-4-yl)thio)-N-methyl-3,6,9,12,15-pentaoxaheptadecanamide]

pIC50 [1, 6]: 6.32
SMILES: O=C1CCC(N2Cc3c(SCCC(=O)Nc4cc5c(Nc6ccc(F)c(Cl)c6)ncnc5cc4O[C@H]4CCOC4)cccc3C2=O)C(=O)N1 (stereo partly drawn) [SIAIS1210085, N-(4-((3-chloro-4-fluorophenyl)amino)-7-(((S)-tetrahydrofuran-3-yl)oxy)quinazolin-6-yl)-3-((2-(2,6-dioxopiperidin-3-yl)-1-oxoisoindolin-4-yl)thio)propanamide]

pIC50 [1, 6]: 6.62
SMILES: O=C1CCC(N2Cc3c(SCCCC(=O)Nc4cc5c(Nc6ccc(F)c(Cl)c6)ncnc5cc4O[C@H]4CCOC4)cccc3C2=O)C(=O)N1 (stereo partly drawn) [SIAIS1210087, N-(4-((3-chloro-4-fluorophenyl)amino)-7-(((S)-tetrahydrofuran-3-yl)oxy)quinazolin-6-yl)-4-((2-(2,6-dioxopiperidin-3-yl)-1-oxoisoindolin-4-yl)thio)butanamide]

pIC50 [1, 6]: 6.80
SMILES: O=C1CCC(N2Cc3c(SCCCCCC(=O)Nc4cc5c(Nc6ccc(F)c(Cl)c6)ncnc5cc4O[C@H]4CCOC4)cccc3C2=O)C(=O)N1 (stereo partly drawn) [SIAIS1210089, N-(4-((3-chloro-4-fluorophenyl)amino)-7-(((S)-tetrahydrofuran-3-yl)oxy)quinazolin-6-yl)-6-((2-(2,6-dioxopiperidin-3-yl)-1-oxoisoindolin-4-yl)thio)hexanamide]

pIC50 [1, 4]: 9.40
SMILES: CNC(=O)CN1CCC(Oc2cc3c(Nc4cccc(Cl)c4F)ncnc3cc2OC)CC1 [Sapitinib (AZD8931), sapitinib, reference compound]
